In ChEMBL document CHEMBL1201862, “PubChem BioAssay data set” (2004) one finds EC50 and IC50 data, which are given here for three molecules.

Assay [1] in a line: inhibitors of intracellular T. cruzi replication, confirmation, NIH3T3 host cells, beta-gal luminescence (AID 2044).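 Note: intracellular parasites grown in NIH/3T3 mouse fibroblasts as host cells; luminescent beta-galactosidase reporter signal from transgenic T. cruzi replicating inside host cells; inhibitors lower the luminescence signal.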 Type of assay: functional, cell-based.
Assay [2] can be described thus: Luminescence Cell-Based Dose Confirmation HTS to Identify Activators of 5'UTR Stem-Loop Driven Alpha-Synuclein mRNA Translation in H4 Neuroglioblastoma Cells. [Related pubchem assays: 1829 (Project Summary), 1814 (Primary HTS)]. The class given is functional.
Assay [3] can be described thus: Luminescence Cell Based Dose Confirmation HTS to Identify Activators of 5'UTR Stem-Loop Driven Alpha-Synuclein mRNA Translation in H4 Neuroglioblastoma Cells. [Related pubchem assays (depositor defined):AID1813, AID1829]. As to conditions: Homo sapiens. Type of assay: functional.
Assay [4] in a line: Luminescence Cell-Based Dose Response HTS to Identify Activators of Luciferase Translation or Activity in H4-C Neuroglioblastoma Cells. [Related pubchem assays: 1829 (Project Summary), 1814 (Primary HTS)]. The class given is functional.
Assay [5] is described as follows: cytotoxicity toward NIH3T3 fibroblasts, dose response, counter-screen, cell-based, ATP luminescence, mouse fibroblasts (AID 2010).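 Note: cells exposed to compound for about 90 hours before reading.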 The class given is functional.
Assay [6] in a line: Luminescence Cell-Based Dose Response HTS to Identify Activators of Luciferase Translation or Activity in H4 […] Cells. [Related pubchem assays: 1829 (Project Summary), 1814 (Primary HTS)]. The class given is functional.
Assay [7] deals with T1, Sentrin-specific protease 6 (Homo sapiens, UniProt Q9GZR1).
T1 sequence (Q9GZR1 whole entry): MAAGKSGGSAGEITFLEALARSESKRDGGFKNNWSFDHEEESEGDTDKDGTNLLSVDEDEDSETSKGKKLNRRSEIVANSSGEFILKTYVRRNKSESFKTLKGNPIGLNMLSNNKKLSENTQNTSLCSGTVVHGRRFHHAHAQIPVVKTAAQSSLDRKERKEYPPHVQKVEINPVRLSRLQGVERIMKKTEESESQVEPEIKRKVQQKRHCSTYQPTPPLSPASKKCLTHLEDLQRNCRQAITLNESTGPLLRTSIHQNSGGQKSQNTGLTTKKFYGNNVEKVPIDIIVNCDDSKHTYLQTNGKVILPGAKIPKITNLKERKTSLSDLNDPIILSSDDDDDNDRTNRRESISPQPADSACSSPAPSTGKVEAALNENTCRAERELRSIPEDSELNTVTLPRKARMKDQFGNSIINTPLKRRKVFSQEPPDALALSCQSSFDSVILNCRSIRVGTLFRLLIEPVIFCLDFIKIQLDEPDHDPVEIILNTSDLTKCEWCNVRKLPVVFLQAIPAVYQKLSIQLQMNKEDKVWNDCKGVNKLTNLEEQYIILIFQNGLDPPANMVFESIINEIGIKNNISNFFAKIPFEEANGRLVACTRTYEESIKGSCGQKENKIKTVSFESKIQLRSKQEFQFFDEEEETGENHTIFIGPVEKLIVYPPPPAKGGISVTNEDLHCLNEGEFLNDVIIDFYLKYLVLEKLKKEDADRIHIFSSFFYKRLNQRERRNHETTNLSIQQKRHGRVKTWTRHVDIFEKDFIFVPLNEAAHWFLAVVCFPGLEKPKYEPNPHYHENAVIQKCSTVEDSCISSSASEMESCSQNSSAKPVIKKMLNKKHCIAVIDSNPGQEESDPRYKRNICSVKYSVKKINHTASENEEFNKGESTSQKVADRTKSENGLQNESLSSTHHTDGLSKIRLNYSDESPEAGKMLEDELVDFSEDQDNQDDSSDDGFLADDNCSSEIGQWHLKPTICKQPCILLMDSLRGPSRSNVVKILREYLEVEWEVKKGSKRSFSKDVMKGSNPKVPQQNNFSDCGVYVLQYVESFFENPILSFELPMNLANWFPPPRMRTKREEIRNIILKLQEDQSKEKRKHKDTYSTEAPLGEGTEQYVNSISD
As to the kind of experiment: SAR Analysis of small molecule inhibitors of Sentrin-specific protease 6 (SENP6) using a Luminescent assay. [Related pubchem assays (depositor defined):AID2582, AID2599]. Type of assay: functional.

The target in assay [8] is Tyrosyl-DNA phosphodiesterase 2 (Homo sapiens, UniProt O95551). Description: human TDP2 enzyme inhibitors, dose response, biochemical, epi absorbance, IC50 (AID 743297).
Assay [9] has as its target T2, Sentrin-specific protease 8 (Homo sapiens, UniProt Q96LD8).
T2 sequence (Q96LD8 whole entry): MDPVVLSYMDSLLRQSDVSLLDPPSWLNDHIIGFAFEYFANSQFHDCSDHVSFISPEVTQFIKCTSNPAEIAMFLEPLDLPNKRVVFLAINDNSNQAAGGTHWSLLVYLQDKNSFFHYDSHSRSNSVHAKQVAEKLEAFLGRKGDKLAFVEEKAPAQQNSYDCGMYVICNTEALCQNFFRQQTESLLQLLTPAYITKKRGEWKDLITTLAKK
As to the kind of experiment: SENP8 protease inhibitors, SAR follow-up, biochemical, luminescence (AID 504501). The class given is functional.

Another assay addresses T3, Caspase-3 (Homo sapiens, UniProt P42574).
T3 sequence (P42574 whole entry): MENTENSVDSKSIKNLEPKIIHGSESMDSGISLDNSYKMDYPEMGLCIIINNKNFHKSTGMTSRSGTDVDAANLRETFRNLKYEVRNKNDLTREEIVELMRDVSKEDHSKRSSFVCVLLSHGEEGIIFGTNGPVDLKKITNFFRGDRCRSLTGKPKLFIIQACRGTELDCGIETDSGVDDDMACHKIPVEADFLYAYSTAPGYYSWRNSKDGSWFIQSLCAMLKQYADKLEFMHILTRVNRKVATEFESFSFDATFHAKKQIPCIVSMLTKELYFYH
Description: SAR Analysis of small molecule inhibitors of Sentrin-specific proteases (SENPs) using a Caspase-3 Selectivity assay. [Related pubchem assays (depositor defined):AID2540, AID2599, AID434973, AID489001]. The class given is functional.

The target of a further assay is Genome polyprotein (dengue virus type 2, UniProt P29990). As to the kind of experiment: Dengue-2 NS5 methyltransferase inhibitors, primary screen, biochemical, confirmation dose response (AID 588689). Type of assay: functional.
For assay [10], the target named is Small ubiquitin-related modifier 1 (Homo sapiens, UniProt P63165). As to the kind of experiment: inhibitors of SUMO1 peptide binding, dose response, biochemical, fluorescence polarization, uHTS hits (AID 624382). Type of assay: functional. As to conditions: read-out: IC50_Mean.
The subject of a further assay is Streptococcus. As to the kind of experiment: Group A Streptococcus viability loss, dose response, counter-screen for streptokinase expression inhibitor project, luminescence, BacTiterGlo (AID 1915).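 Note: potency for reduction of bacterial viability or growth.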 The class given is functional, organism-based. As to conditions: Streptococcus.
Assay [11] has as its target Small ubiquitin-related modifier 2 (Homo sapiens, UniProt P61956). Description: SUMO2–SIM peptide binding inhibitors, dose response, selectivity assay for SUMO1 interaction inhibitor project, biochemical, fluorescence polarization, uHTS hits (AID 624385). The class given is functional. To be noted: read-out: IC50_Mean.
A further assay has as its target SUMO-activating enzyme (Homo sapiens, UniProt Q9UBT2). As to the kind of experiment: SUMOylation inhibitor hit validation, confirmation, SUMOylation inhibitor project, biochemical, AlphaScreen (AID 2018). Type of assay: functional.

Molecules are shown by their SMILES. Calls of active or inactive are those of the source.

Genome polyprotein, sequence (P29990 2492-3391 limits assumed): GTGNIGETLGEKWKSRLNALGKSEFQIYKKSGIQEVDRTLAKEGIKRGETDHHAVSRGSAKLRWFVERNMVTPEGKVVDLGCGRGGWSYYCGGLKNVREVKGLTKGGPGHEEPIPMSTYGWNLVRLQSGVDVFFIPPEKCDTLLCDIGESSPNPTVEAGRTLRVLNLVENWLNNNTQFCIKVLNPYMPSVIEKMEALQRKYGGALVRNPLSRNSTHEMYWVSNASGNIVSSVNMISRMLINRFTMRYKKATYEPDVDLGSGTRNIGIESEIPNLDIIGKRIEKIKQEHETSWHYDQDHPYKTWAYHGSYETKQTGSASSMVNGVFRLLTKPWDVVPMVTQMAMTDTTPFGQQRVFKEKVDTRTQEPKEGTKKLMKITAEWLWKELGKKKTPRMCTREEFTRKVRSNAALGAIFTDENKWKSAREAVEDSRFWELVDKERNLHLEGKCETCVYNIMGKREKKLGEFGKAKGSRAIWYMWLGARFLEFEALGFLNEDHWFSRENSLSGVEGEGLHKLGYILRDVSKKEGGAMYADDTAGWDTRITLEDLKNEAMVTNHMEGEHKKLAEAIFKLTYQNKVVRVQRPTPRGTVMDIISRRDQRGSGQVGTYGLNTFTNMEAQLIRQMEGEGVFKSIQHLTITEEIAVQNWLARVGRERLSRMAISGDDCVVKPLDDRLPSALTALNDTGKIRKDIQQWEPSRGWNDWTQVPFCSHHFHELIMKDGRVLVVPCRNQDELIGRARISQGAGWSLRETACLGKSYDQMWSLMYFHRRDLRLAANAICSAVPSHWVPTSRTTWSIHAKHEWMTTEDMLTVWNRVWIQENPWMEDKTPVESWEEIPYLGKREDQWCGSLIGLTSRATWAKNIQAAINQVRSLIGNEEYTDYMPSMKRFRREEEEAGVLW
SUMO-activating enzyme, sequence (Q9UBE0 whole entry): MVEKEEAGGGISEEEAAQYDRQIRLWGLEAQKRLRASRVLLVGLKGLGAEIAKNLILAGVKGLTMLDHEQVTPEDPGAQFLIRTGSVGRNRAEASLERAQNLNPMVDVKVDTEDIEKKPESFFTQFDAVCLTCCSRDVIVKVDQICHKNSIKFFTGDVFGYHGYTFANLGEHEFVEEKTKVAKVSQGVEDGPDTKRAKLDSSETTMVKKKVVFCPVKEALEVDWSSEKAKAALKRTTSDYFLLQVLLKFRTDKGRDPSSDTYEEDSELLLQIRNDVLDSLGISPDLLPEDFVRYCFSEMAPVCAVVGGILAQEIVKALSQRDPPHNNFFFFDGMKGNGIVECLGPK
SUMO-activating enzyme, sequence (Q9UBT2 whole entry): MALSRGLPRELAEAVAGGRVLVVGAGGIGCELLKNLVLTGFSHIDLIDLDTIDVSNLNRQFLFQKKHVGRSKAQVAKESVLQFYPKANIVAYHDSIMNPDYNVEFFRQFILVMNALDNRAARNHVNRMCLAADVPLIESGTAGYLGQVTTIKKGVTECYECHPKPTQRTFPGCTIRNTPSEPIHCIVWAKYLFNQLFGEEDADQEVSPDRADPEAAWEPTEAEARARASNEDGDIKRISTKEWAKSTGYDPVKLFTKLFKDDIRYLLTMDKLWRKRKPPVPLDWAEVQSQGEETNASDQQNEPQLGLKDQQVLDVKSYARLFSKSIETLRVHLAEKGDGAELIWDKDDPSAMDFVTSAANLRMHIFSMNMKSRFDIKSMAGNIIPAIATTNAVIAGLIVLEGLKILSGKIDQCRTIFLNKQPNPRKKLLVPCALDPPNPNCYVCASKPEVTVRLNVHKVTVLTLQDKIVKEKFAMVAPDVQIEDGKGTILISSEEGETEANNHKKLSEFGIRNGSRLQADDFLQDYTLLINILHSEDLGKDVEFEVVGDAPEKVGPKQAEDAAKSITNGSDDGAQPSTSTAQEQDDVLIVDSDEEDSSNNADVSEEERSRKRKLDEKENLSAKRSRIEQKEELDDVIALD
Small ubiquitin-related modifier 2, sequence (P61956 whole entry): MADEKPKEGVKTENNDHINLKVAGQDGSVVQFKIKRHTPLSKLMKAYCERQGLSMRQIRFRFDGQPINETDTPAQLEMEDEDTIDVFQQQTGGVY
Tyrosyl-DNA phosphodiesterase 2, sequence (O95551 whole entry): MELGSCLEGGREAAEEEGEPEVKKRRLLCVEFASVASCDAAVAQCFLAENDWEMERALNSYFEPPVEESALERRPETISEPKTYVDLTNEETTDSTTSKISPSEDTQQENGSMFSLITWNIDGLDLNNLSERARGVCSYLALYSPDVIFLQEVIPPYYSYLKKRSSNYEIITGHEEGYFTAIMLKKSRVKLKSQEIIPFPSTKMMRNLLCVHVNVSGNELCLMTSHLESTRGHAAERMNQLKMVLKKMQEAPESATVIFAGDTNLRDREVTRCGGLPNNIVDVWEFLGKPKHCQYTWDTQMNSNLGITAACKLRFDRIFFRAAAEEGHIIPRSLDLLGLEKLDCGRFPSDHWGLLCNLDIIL
Small ubiquitin-related modifier 1, sequence (P63165 whole entry): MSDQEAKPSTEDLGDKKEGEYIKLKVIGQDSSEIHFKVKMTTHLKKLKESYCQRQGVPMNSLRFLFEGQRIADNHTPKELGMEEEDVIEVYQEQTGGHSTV

In the case of `c1ccc2c(Nc3nnc(-c4ccncc4)s3)cccc2c1`, the EC50 in [1] was 1.59 µM (active); in assay [2], 0.196 µM (active); in [3], 2.02 µM (active); in assay [4], 1.06 µM (active); in assay [5], > 60 µM (not active); in assay [6], > 120 µM (not active).

With `COc1cc(C(=O)c2nccc3cc(OC)c(OC)cc23)c([N+](=O)[O-])cc1OC`, the IC50 is 66.8 µM (active) in assay [7], > 128 µM (inactive) in assay [8], > 99 µM (inactive) in [9] and > 99 µM (inactive) on Caspase-3.

Regarding `N#Cc1c(O)nc(SCC(=O)N2c3ccccc3Sc3ccccc32)nc1-c1ccccc1`, the IC50 on Genome polyprotein was 38.9 µM (active); in assay [10], 21 µM (inactive); in assay [11], 10.9 µM (active); at SUMO-activating enzyme, 5.15 µM (active). The EC50 with Streptococcus was 13.9 µM (active).
